Experimental data as given in patent US20240199555A1, “APPLICATIONS OF BIASED LIGANDS OF THE SEROTONIN 5-HT7 RECEPTOR FOR THE TREATMENT OF PAIN, MULTIPLE SCLEROSIS AND THE CONTROL OF THERMOREGULATION” (Centre National de la Recherche Scientifique, priority 2021, published 2024).

Experiments:
mice [1] = assay: CFA-induced mechanical hypersensitivity, Von Frey filament test; format: in vivo; conditions: 5 mg/kg, s.c., 30 minutes
Procedure: Mechanical hypersensitivity was evaluated after CFA intraplantar injection by using the Von Frey test. […] Mechanical hypersensitivity was performed 24 hrs later (pre-treatment) CFA intraplantar injection into the left hind paw (ipsilateral paw). […] The ligand effects (E55888 or Serodolin) were evaluated 30 min and 24 hrs after in the ipsilateral paw. Data are means±SEM of values obtained in 2 independent experiments (n=8 to 10 per group). ****p<0.0001 ***p<0.001 **p<0.01 *p<0.05. Statistical analysis was done using Kruskal Wallis test.
Von Frey filament test. Before inducing peripheral inflammation, each animal was tested on the left hind paw with Von Frey Filament to determine its basal sensibility level. Then, peripheral inflammation was induced by intraplantar injection of Complete Freund's Adjuvant (CFA-10 μL) (F5881, Sigma) in the left hind paw (ipsilateral paw) and mechanical allodynia was measure (pre-treatment). Mice were divided into two groups, one with E55888 (5 mg/kg) and the other with Serodolin (5 mg/kg) subcutaneous injections in the ipsilateral paw. Both in absence (−) or in presence (+) of the 5-HT7R antagonist SB269960 (5 mg/kg), intraperitoneally, 20 min before the agonist injections (8-10 mice per group).
The inventors wanted to evaluate the effect of Serodolin on mechanical hypersensitivity in comparison with E-55888 after CFA injection.

mice [2] = assay: Tail immersion test (50° C.); format: in vivo; conditions: 5-HT7R KO mice, subcutaneous
Procedure: (A) Experimental protocol summary used. (B) Mice were subcutaneously injected with two different doses of the 5-HT7 receptor agonist Serodolin, 1 mg/kg or 5 mg/kg and 10 min later their tail extremity was immersed in water heated to 50 degrees. […] The effect of injections (Serodolin or E55888) was evaluated at TO, 30 min and 60 min corresponding to 10, 40 and 70 min after compound injections. […] Their tail extremity was immersed in water heated to 50 degrees at TO (E) or 30 min later (F) corresponding to 10 and 40 min after agonist injections. […] Statistical analysis was done using Tukey's multiple comparison test.
Tail immersion test. Nociception was assessed with the tail immersion test, 10 min and 40 min after E55888 (5 mg/kg) or Serodolin (5 mg/kg) tail subcutaneous injections, in the water heated to 50° C. Vehicle (20% DMSO, 5% Tween 80 diluted in PBS solution) was used as a control group. These different groups were intraperitoneally injected (+) or not (−) with the 5-HT7R antagonist SB269960 (5 mg/kg) 10 min before the ligand injection. The tail withdrawal latency (s) was measured for each animal.

[3] = Pharmacokinetic study in plasma and brain; format: in vivo, C57BL/6 mice; conditions: 5 mg/kg, subcutaneous
Procedure: FIG. 20: Pharmacokinetic study of E55888 and Serodolin. Concentration-time profile of E55888 (reference agonist) and Serodolin in plasma (A) and brain (B) following subcutaneous injection of a unique dose 5 mg/kg of each compound in C57BL/6 mice. Data represent the mean concentration±SEM of n=4 each time point.
The pharmacokinetic study was undertaken to evaluate and compare the quantity of Serodolin and E55888 in plasma and brain samples from C57BL/6 mice (Janvier, Le Genest France) at several time points. Seven weeks old C57BL/6 mice (n=4 animals per group) received by subcutaneous injection a unique dose (5 mg/kg) of Serodolin or E55888 (U103013S, Achemblock). Control group received vehicle (solution of 20% DMSO and 5% Tween 80 diluted in NaCl). […] Blank vehicle mouse brains homogenates and plasma were used to established standard curves of Serodolin or E55888. […] Study samples, brains homogenates and plasma, were prepared for protein precipitation by adding 85 μL of acetonitrile+5-CT to 20 μL of samples. LC-HRMS analysis for PK studies were performed on a maXis Q-TOF mass spectrometer (Bruker, Bremen, Germany) coupled to an U3000 RSLC UHPLC system (Dionex, Germering, Germany). Separation was obtained using an Acquity UPLC BEH C18 column (2.1×50 mm; 1.7 μm) (Waters, Saint-Quentin-en-Yvelines, France) thermostated at 40° C. with a gradient of water (solvent A) and acetonitrile (solvent B), both acidified with 0.1% formic acid at 500 μL/min. […] The samples were randomized prior analysis; 1.25 μL were injected for plasma and 8 μL for brains. […] Area were integrated from extracted ion chromatograms (EIC) of [M+H]+ ions using QuantAnalysis 4.4 software (Bruker) with a tolerance of ±0.005 u.
The pharmacokinetics profile of both compounds were evaluated. The inventors used liquid chromatography tandem mass spectrometry (UPLC-MS/MS) method to perform PK study and measure Serodolin vs E55888 levels in vivo.

human 5-HT7a receptor = human 5-HT7a receptor (Homo sapiens (Human), UniProt P34969); assay: Radioligand binding competition, filtration binding assay, 5-HT7a; conditions: affinity on 5-HT7 receptor, table of new compounds
Procedure: (§1) FIG. 14: Testing of 8 molecules for radioligand binding competition activity on recombinant human 5-HT1A, 5-HT2A, 5-HT2Cedited, 5-HT6, 5-HT7 and D2(long) receptors using filtration binding assays.
(§2) Radioligand Binding experiments were conducted with Epics Therapeutics membrane preparations. Receptor accession numbers, cellular background and reference compounds are shown in this table.
Reference values thus obtained for the test were compared to historical values obtained from the same receptor and used to validate the experimental session. For replicate determinations, the maximum variability tolerated in the test was of +/−20% around the average of the replicates.
(§3) Dose-response data from test compounds were analyzed with XLfit (IDBS) software using nonlinear regression applied to a sigmoidal dose-response model and the following equation: • XL Fit fit Model 203: 4 Parameter Logistic Model • A: Bottom • B: TOP • C: LogEC50 • D: Hill

h5-HT7R [4] = target: T1, h5-HT7R (Homo sapiens (Human), UniProt P34969); assay: AlphaScreen SureFire phospho-ERK and phospho-c-SRC assays; format: cell-based; conditions: pretreatment of cells, Serodolin stimulation
Procedure: FIG. 7: Serodolin induced ERK phosphorylation is dependent on c-SRC activation and requires proline-rich regions on 5-HT7R. […] Cells were lysed, and western blot analysis was performed. (B) The phosphorylation of ERK1/2 as well as phosphorylation of c-SRC were quantified on the same cell lysates using the AlphaScreen assays. Means±SEM of values from three experiments performed in triplicate. (C) The PXXP motif in the C-terminal tail of 5-HT7R has been mutated as described in the upper panel. The corresponding constructs encoding HA-tagged 5-HT7 receptor were transfected in HEK-293 cells as indicated (MutT1, mutT2 and mutT3), then the effect of 5-CT and Serodolin have been evaluated on ERK1/2 and c-SRC activation by Western blot analysis. Representative immunoblots of three independent experiments are illustrated.
The AlphaScreen SureFire phospho-ERK and phosphor-c-SRC assays (PerkinElmer) were used to quantify pERK1/2 and pc-SRC from HEK-293 cell lysates according to the manufacturer's instructions.
(2018) V1b vasopressin receptor trafficking and signaling: Role of arrestins, G proteins and Src kinase. Traffic 19, 58-82; Rey, A., Manen, D., Rizzoli, R., Caverzasio, J., and Ferrari, S. L. (2006) Proline-rich motifs in the parathyroid hormone (PTH)/PTH-related protein receptor C terminus mediate scaffolding of c-Src with beta-arrestin2 for ERK1/2 activation. J Biol Chem 281, 38181-38188). […] To determine whether one of these mechanisms was required for Serodolin-induced ERK phosphorylation, the inventors first evaluated the sensitivity of this activation to the c-SRC-specific tyrosine kinase inhibitor PP2. […]

human 5-HT2A receptor = human 5-HT2A receptor (Homo sapiens (Human), UniProt P28223); assay: Radioligand binding competition, 5-HT2A; conditions: selectivity panel
Procedure: as §1, §2
(§4) The new compounds have been tested by radioligand binding competition activity at the human 5-HT1A (FAST-0500B), 5-HT2A (FAST-0505B), 5-HT2Cedited (FAST-0507B), 5-HT6 (FAST-0509B), 5-HT7a (FAST-05111B) and D2(long) (FAST-0101B) receptors at seven (7) concentrations, in duplicate. […] Reference values thus obtained for the test were compared to historical values obtained from the same receptor and used to validate the experimental session. For replicate determinations, the maximum variability tolerated in the test was of +/−20% around the average of the replicates.
as §3

h5-HT7R [5] = target: T1, h5-HT7R; assay: cAMP accumulation (LANCE cAMP detection kit) in HEK-293 cells stably expressing h5-HT7R; format: cell-based; conditions: tested alone
Procedure: (B) HEK-293 cells stably expressing h5-HT7R were stimulated with 10 nM of 5-CT and increasing concentrations of products for one hour. After cell lysis, cAMP production was quantified by a LANCE cAMP detection kit (Perkin Elmer). […] Data points represent the means±SEM from three independent experiments performed in triplicate. The EC50 and IC50 for each drug was determined using GraphPad Prism software.
cAMP accumulation was measured with a LANCE™ cAMP detection kit (Perkin-Elmer Life Sciences, Boston, MA, USA). 12 h before experiment cells were starved. Forty-eight h after transfection, cells were harvested in Hank's balanced salt solution (HBSS) containing 5 mM HEPES, 1 mM isobutylmethylxanthine (IBMX) and 0.1% BSA, PH 7.4. After centrifugation (1000×g, 5 min), cells were resuspended in the same buffer (2×10^6 per ml). The ALEXA™ fluor 647 anti-cAMP antibody solution (1 μl) was added to the cell suspension (100 μl) and 5 μl aliquots of the mixture were dispensed in white 384-well microtiter plates (Optiplate, Perkin Elmer). The cells were then stimulated with different drugs. After 1 h incubation at room temperature in the dark, lysis buffer (0.35% Triton X-100, 10 mM CaCl2, 50 mM HEPES) containing LANCE EU-W8044 labeled streptavidin and biotinylated-cAMP was added to the cells (10 μL per well). After 2 h incubation at room temperature in the dark, the plates were read on a VictorV™ microplate reader (Perkin-Elmer Life Sciences). Concentration/response curves were analyzed using Prism 4 software.
HEK-293 fibroblast stably expressing 5-HT7 receptor were used to compare the effect of different 5-HT7R ligands on the classical Gαs-mediated activation of AC pathway. It was decided to evaluate the lead compounds from two series of ligands, Serodolin and MOA-51 (FIG. 1A).

human 5-HT1A receptor = human 5-HT1A receptor (Homo sapiens (Human), UniProt P08908); assay: Radioligand binding competition, 5-HT1A; conditions: selectivity panel
Procedure: as §1, §2, §4, §3

[6] = target: human 5-HT2Cedited receptor (Homo sapiens, UniProt P28335); assay: Radioligand binding competition, 5-HT2Cedited; conditions: selectivity panel
Procedure: as §1, §2, §4, §3

T1 sequence (P34969 1-432): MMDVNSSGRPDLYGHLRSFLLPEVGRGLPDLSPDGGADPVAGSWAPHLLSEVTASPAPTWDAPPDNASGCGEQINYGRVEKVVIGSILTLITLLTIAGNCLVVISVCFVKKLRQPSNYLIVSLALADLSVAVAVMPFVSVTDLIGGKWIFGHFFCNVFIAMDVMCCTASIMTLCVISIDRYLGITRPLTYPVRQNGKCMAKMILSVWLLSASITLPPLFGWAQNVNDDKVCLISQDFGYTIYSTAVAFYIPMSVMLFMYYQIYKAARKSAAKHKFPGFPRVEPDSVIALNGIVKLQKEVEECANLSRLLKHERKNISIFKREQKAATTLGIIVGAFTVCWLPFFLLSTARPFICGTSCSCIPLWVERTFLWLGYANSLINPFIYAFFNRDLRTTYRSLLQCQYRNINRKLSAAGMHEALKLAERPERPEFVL
human 5-HT7a receptor, sequence (P34969 other isoform, or with tags, fused parts or gaps): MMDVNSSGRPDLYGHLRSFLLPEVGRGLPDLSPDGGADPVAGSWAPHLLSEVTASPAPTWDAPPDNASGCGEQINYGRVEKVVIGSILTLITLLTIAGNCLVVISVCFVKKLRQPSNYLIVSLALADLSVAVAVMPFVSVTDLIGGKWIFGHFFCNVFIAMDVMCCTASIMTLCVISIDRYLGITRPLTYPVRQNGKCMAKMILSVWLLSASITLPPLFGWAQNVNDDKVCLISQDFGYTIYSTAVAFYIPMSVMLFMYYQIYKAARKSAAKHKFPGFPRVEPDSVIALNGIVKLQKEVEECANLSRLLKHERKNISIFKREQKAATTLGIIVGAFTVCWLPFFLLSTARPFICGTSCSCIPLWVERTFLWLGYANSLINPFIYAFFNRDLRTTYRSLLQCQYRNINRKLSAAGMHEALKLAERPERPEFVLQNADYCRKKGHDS
human 5-HT1A receptor, sequence (P08908 whole entry): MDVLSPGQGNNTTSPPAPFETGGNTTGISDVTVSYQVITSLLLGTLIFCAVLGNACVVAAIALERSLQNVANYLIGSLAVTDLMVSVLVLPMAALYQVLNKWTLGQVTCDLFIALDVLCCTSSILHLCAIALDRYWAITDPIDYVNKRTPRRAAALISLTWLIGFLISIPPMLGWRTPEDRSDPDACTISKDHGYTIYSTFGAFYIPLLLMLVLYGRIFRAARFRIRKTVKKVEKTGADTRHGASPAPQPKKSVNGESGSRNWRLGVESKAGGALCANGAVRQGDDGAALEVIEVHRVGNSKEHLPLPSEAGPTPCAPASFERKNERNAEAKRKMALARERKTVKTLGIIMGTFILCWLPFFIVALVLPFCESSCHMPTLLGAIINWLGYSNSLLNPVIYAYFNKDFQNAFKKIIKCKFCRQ
human 5-HT2Cedited receptor, sequence (P28335 33-458 limits assumed): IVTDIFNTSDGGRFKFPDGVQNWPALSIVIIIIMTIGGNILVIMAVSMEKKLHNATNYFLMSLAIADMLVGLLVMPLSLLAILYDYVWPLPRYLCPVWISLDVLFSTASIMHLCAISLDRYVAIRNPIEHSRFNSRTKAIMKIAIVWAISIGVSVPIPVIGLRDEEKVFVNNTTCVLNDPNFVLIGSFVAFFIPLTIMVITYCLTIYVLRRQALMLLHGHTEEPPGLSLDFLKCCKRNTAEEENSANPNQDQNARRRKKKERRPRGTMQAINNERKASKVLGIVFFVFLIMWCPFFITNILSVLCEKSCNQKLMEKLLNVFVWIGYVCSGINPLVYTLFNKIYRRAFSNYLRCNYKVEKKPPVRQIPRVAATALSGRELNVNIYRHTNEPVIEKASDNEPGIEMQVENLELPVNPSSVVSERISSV
human 5-HT2A receptor, sequence (P28223 whole entry): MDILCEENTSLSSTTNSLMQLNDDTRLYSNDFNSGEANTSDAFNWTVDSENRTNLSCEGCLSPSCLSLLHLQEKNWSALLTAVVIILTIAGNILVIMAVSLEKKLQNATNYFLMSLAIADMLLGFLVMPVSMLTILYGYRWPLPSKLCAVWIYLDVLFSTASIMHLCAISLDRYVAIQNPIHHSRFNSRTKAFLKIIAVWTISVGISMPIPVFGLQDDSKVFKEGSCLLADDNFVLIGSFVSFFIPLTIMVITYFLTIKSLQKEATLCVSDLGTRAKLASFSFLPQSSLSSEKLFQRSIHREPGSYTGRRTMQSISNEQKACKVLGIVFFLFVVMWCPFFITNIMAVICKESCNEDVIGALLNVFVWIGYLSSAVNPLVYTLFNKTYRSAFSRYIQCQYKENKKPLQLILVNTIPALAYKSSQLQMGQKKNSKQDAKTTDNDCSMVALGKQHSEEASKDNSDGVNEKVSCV

For `Cc1nn(C)c(C)c1-c1cccc(CCN(C)C)c1` [E55888, reference compound], the “CFA-induced mechanical hypersensitivity, 30 minutes after administration” value (mice [1]) was “reversed the CFA-induced mechanical hypersensitivity”, the “anti-nociceptive effect in 5-HT7R KO mice” value (mice [2]) was “did not exert any anti-nociceptive effect” and the “passage of the brain blood barrier” value [3] was “ability to pass the brain blood barrier”. For the same compound, the “time of maximum of detection” value ([3]; both in plasma and brain) was 15 to 30 min, the “maximum of detection in brain” value ([3]; brain) was 1.4 ± 0.2 µg/mL and the “maximum of detection in plasma” value ([3]; plasma) was 6.1 ± 0.5 µg/mL. For the same compound, the “time after which eliminated / undetectable” value ([3]; plasma and brain) was 120 min, the IC50 (human 5-HT7a receptor) was 2.68 nM and the Ki (human 5-HT7a receptor) was 1.88 nM.
For `Nc1ncnc2c1cnn2-c1ccccc1` [PP3], the “block of Serodolin-induced ERK phosphorylation” value (h5-HT7R [4]) was “inactive”.
In the case of `CC(C)(C)n1nc(-c2ccc(Cl)cc2)c2c(N)ncnc21` [PP2], the “block of Serodolin-induced ERK phosphorylation” value (h5-HT7R [4]) is reported as 99% and the “block of Serodolin-induced c-SRC phosphorylation” value (h5-HT7R [4]) is reported as 100%.
With `O=C(c1ccc(F)cc1)C1CCN(CCCCn2c(=O)[nH]c3ccccc32)CC1` [MOA51] the IC50 (human 5-HT2A receptor; read-out: RLB 5-HT2A IC50) was 3.29 nM, the Ki (human 5-HT2A receptor; read-out: RLB 5-HT2A Ki) was 0.54 nM and the “inhibition of cAMP production when tested alone (inverse agonist effect)” value (h5-HT7R [5]) was “around 75%”. It also gave an IC50 (human 5-HT1A receptor; read-out: RLB 5-HT1A IC50) of 885 nM, a Ki (human 5-HT1A receptor; read-out: RLB 5-HT1A Ki) of 442 nM and an IC50 ([6]; read-out: RLB 5-HT2Cedited IC50) of 699 nM. It also gave a Ki ([6]; read-out: RLB 5-HT2Cedited Ki) of 115 nM, an IC50 (human 5-HT7a receptor) of 0.29 nM and a Ki (human 5-HT7a receptor) of 0.2 nM.
